Data: patent US20020183332A1, “USE OF CYAMEMAZINE IN THE TREATMENT OF ABRUPT BENZODIAZEPHINE WITHDRAWAL” (priority 1999, published 2002)

Assays:
[1] = tested on: patients treated with benzodiazepines for 3 months or more and requiring benzodiazepine withdrawal; assay: randomized double-blind clinical trial: abrupt benzodiazepine withdrawal with cyamemazine substitution versus gradual withdrawal with bromazepam; format: in vivo; conditions: for patients in whom the withdrawal is still a success: after 6 months; for patients in whom the treatment is successful: after 6 weeks of study, benzodiazepine withdrawal, 168 patients
[2] = tested on: benzodiazepine withdrawal syndrome; conditions: LADER et al. 1987, SCHWEIZER et al. 1998; cited from earlier work
alcohol uptake in rats = conditions: NAASILA et al. 1998; cited from earlier work

SMILES | patients in whom the withdrawal is still a success [1] | patients in whom the treatment is successful [1] | effect on the withdrawal syndrome [2] | maximum amplitude of the anxiety rebound ([1]; HARS scale (HAMILTON anxiety scale), cyamemazine group versus bromazepam group) | frequency of occurrence of a withdrawal syndrome ([1]; RICKELS withdrawal scale, cyamemazine group versus bromazepam group) | maximum amplitude of the anxiety rebound ([1]; ZUNG anxiety scale, cyamemazine group versus bromazepam group) | percentage of patients exhibiting an anxiety rebound ([1]; cyamemazine group versus bromazepam group) | action on alcohol uptake (alcohol uptake in rats)
O=C1CN=C(c2ccccn2)c2cc(Br)ccc2N1 [bromazepam] | 75% | 85% |  |  |  |  |  | 
O=C1CC2(CCCC2)CC(=O)N1CCCCN1CCN(c2ncccn2)CC1 [buspirone] |  |  | not shown any significant effect |  |  |  |  | 
CC(CN(C)C)CN1c2ccccc2Sc2ccc(C#N)cc21 (stereo not shown) [cyamemazine] | 90% | 95% |  | no significant difference | no significant difference | no significant difference | no significant difference | decrease of alcohol uptake
